Source: publication PMC10527514 (Gastroenterology, 2023)

Assays:
Format in all cases: cell-based
[1] = biological target: T1, PPARα (Homo sapiens, UniProt Q07869); assay: PathHunter nuclear hormone receptor cell assay, chemiluminescence
T1 sequence (Q07869 1-468): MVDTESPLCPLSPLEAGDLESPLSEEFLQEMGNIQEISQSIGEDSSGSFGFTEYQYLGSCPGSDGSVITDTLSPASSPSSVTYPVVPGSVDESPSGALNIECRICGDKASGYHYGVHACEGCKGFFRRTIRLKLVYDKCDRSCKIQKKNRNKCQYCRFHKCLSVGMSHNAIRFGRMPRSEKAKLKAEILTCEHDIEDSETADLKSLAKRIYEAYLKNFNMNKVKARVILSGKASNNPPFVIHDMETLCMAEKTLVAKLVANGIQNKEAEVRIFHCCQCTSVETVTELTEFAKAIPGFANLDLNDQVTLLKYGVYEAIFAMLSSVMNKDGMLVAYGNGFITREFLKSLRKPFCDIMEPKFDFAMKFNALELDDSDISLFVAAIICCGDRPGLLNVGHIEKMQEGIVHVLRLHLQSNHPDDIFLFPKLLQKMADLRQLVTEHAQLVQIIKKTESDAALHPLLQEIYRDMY

[2] = biological target: GPR84 (Homo sapiens, UniProt Q9NQS5); assay: Hit Hunter cAMP assay in cAMP Hunter cells
[3] = biological target: T2, PPARγ (Homo sapiens, UniProt P37231); assay: PathHunter nuclear hormone receptor cell assay, chemiluminescence
T2 sequence (P37231 1-505): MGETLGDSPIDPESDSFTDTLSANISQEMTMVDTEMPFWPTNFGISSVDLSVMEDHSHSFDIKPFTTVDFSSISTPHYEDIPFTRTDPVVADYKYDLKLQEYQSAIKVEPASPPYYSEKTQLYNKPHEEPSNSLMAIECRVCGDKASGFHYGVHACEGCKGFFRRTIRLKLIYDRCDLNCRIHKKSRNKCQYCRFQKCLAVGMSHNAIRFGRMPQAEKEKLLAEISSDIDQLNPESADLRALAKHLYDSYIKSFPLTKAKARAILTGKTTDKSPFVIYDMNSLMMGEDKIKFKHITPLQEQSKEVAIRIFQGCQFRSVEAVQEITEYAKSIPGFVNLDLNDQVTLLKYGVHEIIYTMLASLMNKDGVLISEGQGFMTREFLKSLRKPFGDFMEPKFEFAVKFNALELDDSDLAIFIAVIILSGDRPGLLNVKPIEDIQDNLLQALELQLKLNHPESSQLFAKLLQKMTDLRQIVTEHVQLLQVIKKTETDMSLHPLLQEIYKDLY

Sequence of GPR84 (Q9NQS5 whole entry): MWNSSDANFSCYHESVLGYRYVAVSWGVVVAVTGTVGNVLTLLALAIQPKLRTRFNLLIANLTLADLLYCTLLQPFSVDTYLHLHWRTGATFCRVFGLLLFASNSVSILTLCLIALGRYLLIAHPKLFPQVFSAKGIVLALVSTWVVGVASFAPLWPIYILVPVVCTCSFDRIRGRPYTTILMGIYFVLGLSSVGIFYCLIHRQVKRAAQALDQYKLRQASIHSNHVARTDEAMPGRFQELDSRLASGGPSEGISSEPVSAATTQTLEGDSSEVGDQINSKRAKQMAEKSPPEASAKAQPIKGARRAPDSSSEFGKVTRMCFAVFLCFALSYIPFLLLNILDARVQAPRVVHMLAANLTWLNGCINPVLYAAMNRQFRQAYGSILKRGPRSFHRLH

EC50 [1]: 4.4 µM
EC50 [2]: 12 µM
EC50 [3]: 40 µM
SMILES: CCCCCOc1cccc(C(=O)O)c1C [SEFA-6179]
